The text below walks through data of US20230227445A1, “BENZAMIDE COMPOUND AND USE THEREOF” (HUMANWELL HEALTHCARE (GROUP) CO., LTD., priority 2020, published 2023).

Molecules are shown by their SMILES.

A short description of data set [1]: Pharmacokinetic assay in mouse. In kind it is in vivo, ICR mice. As to conditions: for pharmacokinetic properties in mouse compared with Reference compound 1 and Reference compound 2 (in words): mouse assay, vs Reference compounds 1 and 2. Here is the method:
For a mouse pharmacokinetic assay, male ICR mice (20 g to 25 g) were selected and fasted overnight. Three mice were intragastrically administered with 10 mg/kg of the corresponding compound. The blood of the mice was collected before the administration and at 15 min, 30 min, 1 h, 2 h, 4 h, 8 h, and 24 h after the administration. The blood samples were centrifuged at 4° C. for 6 minutes at 6,800 g, plasma was collected and stored at −80° C.
The supernatant was mixed with 3 times the amount of water, and an appropriate amount of the mixed solution was taken for LC-MS/MS analysis. The primary pharmacokinetic parameters were analyzed by WinNonlin 7.0 software non-atrioventricular model.

Data set [2] has as its system histamine/citric acid-stimulated cough in guinea pig. The data set is described as follows: Efficacy test for histamine/citric acid-stimulated cough in guinea pig. Format: in vivo. As to conditions: guinea pigs, nasal drops, 0.17 mg/kg to 1.5 mg/kg, histamine/citric acid stimulation. The method, then:
Guinea pigs were adaptively fed for 3 days to 7 days before being grouped. When the body weight of the guinea pigs reached 300 g to 400 g, they were numbered and randomly grouped.
Compounds or an excipient were administered to guinea pigs by nasal drops 0.25 hour to 24 hours before the start of the cough assessment. The administration dose of the test sample ranged from 0.17 mg/kg to 1.5 mg/kg. For the cough assessment, the guinea pigs were placed in a whole-body volume scan box for adaptation, and then, they were provided with histamine nebulization and then citric acid nebulization. […]
(§1) The experimental data was statistically analyzed by one-way ANOVA to analyze and compare data of the various groups. The statistical analysis result p<0.05 was regarded as a significant difference. The t-test was employed for difference comparison between any two.

Data set [3] has as its system ATP/citric acid-stimulated cough in guinea pig. The data set is described as follows: Efficacy test for ATP/citric acid-stimulated cough in guinea pig. In kind it is in vivo. Particulars: guinea pigs, nasal drops, 0.17 mg/kg to 1.5 mg/kg, ATP/citric acid stimulation. The method, then: Guinea pigs were adaptively fed for 3 days to 7 days before being grouped. When the body weight of the guinea pigs reached 300 g to 400 g, they were numbered and randomly grouped. Compounds or an excipient were administered to guinea pigs by nasal drops 0.25 hour to 24 hours before the start of the cough assessment. The administration dose of the test sample ranged from 0.17 mg/kg to 1.5 mg/kg. For the cough assessment, the guinea pigs were placed in a whole-body volume scan box for adaptation, and then provided with ATP nebulization, and a few minutes later, they were provided with citric acid nebulization. The cough times within 15 minutes and the cough latency were recorded from the beginning of citric acid nebulization.
as §1

In another data set the target is T1, hP2X3 receptor (Homo sapiens, UniProt P56373).
T1 construct: expressed in transfected cells
T1 sequence (P56373 1-397): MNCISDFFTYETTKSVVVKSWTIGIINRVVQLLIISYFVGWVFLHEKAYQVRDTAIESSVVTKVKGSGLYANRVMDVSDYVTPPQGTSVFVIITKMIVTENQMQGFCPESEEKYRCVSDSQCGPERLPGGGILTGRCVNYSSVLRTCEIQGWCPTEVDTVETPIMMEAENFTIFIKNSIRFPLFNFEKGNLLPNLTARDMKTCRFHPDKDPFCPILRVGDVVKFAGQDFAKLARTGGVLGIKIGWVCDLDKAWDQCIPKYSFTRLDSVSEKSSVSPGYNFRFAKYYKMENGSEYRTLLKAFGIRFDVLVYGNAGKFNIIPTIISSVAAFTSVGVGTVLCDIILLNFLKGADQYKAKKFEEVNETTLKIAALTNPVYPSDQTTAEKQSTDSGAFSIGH
The data set is described as follows: Antagonistic activity against hP2X3 receptor by FLIPR calcium flow assay. Format: cell-based. Particulars: for IC50: human cells stably transfected with hP2X3, agonist α,β-meATP 400 nM; for antagonistic activity against hP2X3 receptor compared with Reference compound 1 (in words): vs Reference compound 1. Here is the method: The antagonistic activity of hP2X3 antagonists against hP2X3 receptor was evaluated by means of FLIPR Calcium 4 Assay Kit (Molecular Devices, R8141) and FLIPR TETRA instrument (Molecular Devices, 0296) by detecting calcium flow signals. 24h before the experiment, human cells, which had been stably transfected with hP2X3 receptors, were plated on a 384-well plate at 2×10^5 cells/mL, with 50 μL of cell suspension per well, and the plate was cultured in an incubator (37° C., 5% CO2) for 16 h to 24 h. The test compound solution (20 to 50 mM DMSO stock solution) with a concentration of 180 times the required concentration was prepared using DMSO. The stock solution was added to the 384-well plate at 500 nL per well, supplemented with 30 μL of FLIPR Assay buffer (1×HBSS+2 mM CaCl2 20 mM HEPES containing 1.26 mM Ca^2+). The 384-well plate was shaken for 20 to 40 min to mix evenly. An agonist (α, β-meATP) with a concentration of 3 times the required concentration (required final concentration was 400 nM) was prepared with FLIPR Assay buffer, and was added to another 384-well plate at 45 μL per well. The culture plate, on which the cells were plated one day ago, was taken, the cell supernatant was sucked and discarded, each well was added with 30 μL of Dye (FLIPR® Calcium 4 Assay Kit, diluted with FLIPR buffer), and then the plate was incubated for 1h. 15 μL of compound was added to each well of cells (using FLIPR sample injector). After 15 minutes, 22.5 μL of the agonist was added to each well, and the fluorescence signal (exciting light wavelength ranging from 470 nm to 495 nm, and emission wavelength ranging from 515 nm to 575 nm) was detect. […] An inhibition effect curve of the compound was fitted on the software GraphpadPrism6, and the IC50 value was calculated.

A further data set relates to rat taste. Nature of the data set: Taste test in rat (water vs 0.3 mM aqueous quinine solution intake). In kind it is in vivo, SD rats. Particulars: for Water/aqueous quinine solution (ratio of water intake to aqueous quinine solution intake): SD rats, 30 mg/kg i.p, 0.3 mM quinine, 15 min supply half an hour after administration. Here is the method: SD rats were administered with the corresponding compound after 3 days of overnight water prohibition training. Each rat was supplied with 1 bottle of water and 1 bottle of 0.3 mM aqueous quinine solution half an hour after the administration. After 15 min of water supply, the bottles were removed. The intake amount of water and the intake amount of the 0.3 mM aqueous quinine solution were measured, respectively. The taste influence of the compound on SD rats was evaluated based on the difference between the intake amount of water and the intake amount of the aqueous quinine solution.

A short description of data set [4]: Pharmacokinetic assay in canine. Format: in vivo, Beagle dogs. The method, then: For a canine pharmacokinetic assay, male Beagle dogs (8 kg to 10 kg) were selected and fasted overnight. Three Beagle dogs were intragastrically administered with 5 mg/kg of the corresponding compound. Another 3 Beagle dogs were intravenously administered with 1 mg/kg of the corresponding compound. The blood of the dogs was collected before the administration and at 15 min, 30 min, 1 h, 2 h, 4 h, 8 h, and 24 h after the administration. The blood samples were centrifuged at 4° C. for 6 minutes at 8,000 r/min, plasma was collected and stored at −20° C. […] The supernatant was taken and mixed with 3 times the amount of water, and an appropriate amount of the mixed solution was taken for LC-MS/MS analysis. The primary pharmacokinetic parameters were analyzed by WinNonlin 7.0 software non-atrioventricular model.

The nature of data set [5]: Pharmacokinetic assay in rat. In kind it is in vivo, SD rats. Particulars: rat, plasma, po, male SD rats, intragastric administration, 10 mg/kg. The method, then:
For a rat pharmacokinetic assay, male SD rats (180 g to 240 g) were selected and fasted overnight. Three rats were intragastrically administered with 10 mg/kg of the corresponding compound. The blood of the rats was collected before the administration and at 15 min, 30 min, 1 h, 2 h, 4 h, 8 h, and 24 h after the administration. The blood samples were centrifuged at 4° C. for 6 minutes at 8,000 r/min, and plasma was collected and stored at −20° C. Plasma at each time point was taken, and added with 3 to 5 times the amount of an internal standard-containing acetonitrile solution to mix, and the mixture was vortex mixed for 1 minute, and centrifuged at 4° C. for 10 minutes at 13,000 r/min. The supernatant was taken and mixed with 3 times the amount of water, and an appropriate amount of the mixed solution was taken for LC-MS/MS analysis. The primary pharmacokinetic parameters were analyzed by WinNonlin 7.0 software non-atrioventricular model.

The mark [6] stands for this setting: mouse, plasma, po, male ICR mice, intragastric administration, 10 mg/kg.
The mark [7] stands for this setting: dog, plasma, po, male Beagle dogs, intragastric administration, 5 mg/kg.
[8] abbreviates: dog, plasma, male Beagle dogs, intravenous administration, 1 mg/kg.

`Cc1cnc(-c2cc(O[C@@H](C)[C@@H](C)O)cc(C(=O)N[C@H](C)c3cnc(C(F)(F)F)nc3)c2F)s1` [Compound I-27, 2-fluoro-5-(((2S, 3R)-3-hydroxybutan-2-yl)oxy)-3-(5-methylthiazol-2-yl)-N—((R)-1-(2-(trifluoromethyl)pyrimidin-5-yl)ethyl)benzamide]: in data set [1], the “pharmacokinetic properties in mouse compared with Reference compound 1 and Reference compound 2 (in words)” value is “significantly improved pharmacokinetic properties”. In addition, the “Average cough times within 15 min” value in data set [2] came to 8.9; in data set [3], 6.3. In addition, on hP2X3 receptor, the IC50 was 0.067 µM. Further, the “antagonistic activity against hP2X3 receptor compared with Reference compound 1 (in words)” value on hP2X3 receptor was “better antagonistic activity”. Further, the “Water/aqueous quinine solution (ratio of water intake to aqueous quinine solution intake)” value in the data set with rat taste is given as 29.4. The “interference on rat taste compared with Reference compound 1 (in words)” value in the data set with rat taste (vs positive reference compound) is on record as “significantly less interference on rat taste”.

For the compound `Cc1cnc(-c2cc(O[C@H](C)[C@H](C)O)cc(C(=O)N[C@H](C)c3cnc(C(F)(F)F)nc3)c2F)s1` [Compound I-29, 2-fluoro-5-(((2R, 3S)-3-hydroxybutan-2-yl)oxy)-3-(5-methylthiazol-2-yl)-N—((R)-1-(2-(trifluoromethyl)pyrimidin-5-yl)ethyl)benzamide], the “pharmacokinetic properties in mouse compared with Reference compound 1 and Reference compound 2 (in words)” value in data set [1] is “significantly improved pharmacokinetic properties”. For the same compound, in data set [1] (setting [6]), the AUC(0-t) came to 14900 ng·h/mL, the concentration peaked (Cmax) at 4100 ng/mL and the Tmax came to 1 h. Also, the half-life in data set [1] (mouse, plasma, po, male ICR mice, intragastric administration, 10 mg/kg, read-out: T½ (converted)) is 2.23 h. Moreover, in data set [2], the “Average cough times within 15 min” value is recorded as 10.8 and the “Cough inhibition rate vs. solvent” value came to 59.4%. Moreover, the “half-life (in words)” value in data set [4] (canine) is reported as “long half-life”. Also, in data set [4] (canine, intravenous administration), the “clearance rate (in words)” value is on record as “low clearance rate”. In addition, the “exposure (in words)” value in data set [4] (canine, oral and intravenous administrations) was “high exposure”. Moreover, the “pharmacokinetic characteristics compared with the reference compound (in words)” value in data set [4] (canine, vs reference compound) is “better pharmacokinetic characteristics”. Besides, in data set [4] (setting [7]), the AUC(0-t) amounted to 8730 ng·h/mL, the highest level (Cmax) was 1160 ng/mL, the Tmax was found to be 1 h and the half-life is 7.26 h. Besides, in data set [4] (setting [8]), the AUC(0-t) stood at 2010 ng·h/mL, the clearance was 7.5 mL/min/kg and the half-life is 7.64 h. The Vd in data set [4] (dog, plasma, male Beagle dogs, intravenous administration, 1 mg/kg, read-out: Vz) was 5 L/kg. At hP2X3 receptor, the IC50 was 0.057 µM and the “antagonistic activity against hP2X3 receptor compared with Reference compound 1 (in words)” value is on record as “better antagonistic activity”. Moreover, the “Water/aqueous quinine solution (ratio of water intake to aqueous quinine solution intake)” value in the data set with rat taste worked out at 12.0.

As for `Cc1cnc(-c2cc(O[C@@H]3CCOC3)cc(C(=O)N[C@H](C)c3cnc(C(F)(F)F)nc3)c2)s1` [Reference compound 1, reference compound], in data set [5], the AUC(0-t) came out at 3330 ng·h/mL, the peak level (Cmax) was 417 ng/mL and the Tmax is 2 h. In data set [5] (read-out: T½ (converted)), the half-life was 4.01 h. For the same compound, the “Average cough times within 15 min” value in data set [3] turned out to be 8.1.

The term IC50 denotes the concentration at which inhibition is half-maximal. For orientation: AUC(0-t) means the area under the concentration-time curve up to a stated or last time point. High values mean high exposure, low ones low exposure. Broadly, the Cmax is the highest concentration seen after dosing. By Tmax is commonly meant the time at which the peak concentration occurs. Broadly, the clearance is the volume of plasma or blood freed of the substance per unit of time. The low end stands for a low capacity for elimination, the high end for a high capacity for elimination.
